According to patent publication US7851443B2, “Combination comprising combretastatin and anticancer agents” (Aventis Pharma SA, priority 2005, dated 2010):

Assays:
[1] = tested on: MA13/C murine mammary adenocarcinoma tumor; experiment: Antitumor effect on advanced MA13/C murine mammary adenocarcinoma grafted subcutaneously in mice; format: in vivo, female C3H/HeN mice
Method: This efficacy can be quantified, for example by the log10 cell kill, which is determined by the following formula: log10 cell kill=T-C (days)/3.32×Td in which T-C represents the delay in tumor growth, which is the average time, in days, taken by the tumors of the treated group (T) to reach a predetermined value (1 g for example) and for the tumors of the control group (C) to reach the same value, and Td represents the time, in days, necessary for the volume of the tumors in the control group to double. During the exponential phase of tumor growth (T. H. Corbett et al., Cancer, 40, 2660.2680 (1977); F. M. Schabel et al., Cancer Drug Development, Part B, Methods in Cancer Research, 17, 3-51, New York, Academic Press Inc. (1979)). A product is considered to be active if the log10 cell kill is greater than or equal to 0.7.
The efficacy of the combinations of solid tumors can be determined experimentally in the following way:
(§1) The animals subjected to the experiment are female C3H/HeN mice which are bilaterally grafted subcutaneously with 30 to 60 mg of a fragment of MA13/C murine mammary adenocarcinoma tumor at day 0. In the case of an early tumor treatment, the implanted animals are distributed randomly in various groups which are or are not (controls) intended to receive the treatment(s). […] Generally, the chemotherapy begins from 3 to 22 days after the graft, according to the type of tumor and the desired tumor size. The animals are observed and weighed every day. A dose which induces a weight loss of 20% or more at the lowest point (average of the group) or a mortality of 10% or more is considered to be toxic. The tumoral activity is evaluated at the highest nontoxic dose.
The tumors are measured 2 or 3 times a week until the tumor reaches approximately 2 g or until the animal dies, if this occurs before the tumor reaches 2 g. The animals are autopsied when they are sacrificed.
The antitumor activity is determined in accordance with various recorded parameters, such as the dose (mg/kg), the method of administration, the administration time, the toxicity and the log cell kill, which depends on the delay in tumor growth and also on the tumor doubling time.

[2] = Toxicity (mortality, weight loss) in tumor-bearing mice; format: in vivo, female C3H/HeN mice
Method: as §1

[3] = Formula (IIa) IV 22.3 mg/kg per administration, days 21, 25, total dose 44.6 mg/kg
[4] = Formula (IIa) IV 36.0 mg/kg per administration, days 21, 25, total dose 72.0 mg/kg
[5] = Formula (IIa) IV 58.0 mg/kg per administration, days 21, 25, total dose 116.0 mg/kg
[6] = Formula (IIa) IV 93.5 mg/kg per administration, days 21, 25, total dose 187.0 mg/kg
[7] = VEGF Trap SC 10.0 mg/kg per administration, days 21, 25, total dose 20.0 mg/kg
[8] = VEGF Trap SC 25.0 mg/kg per administration, days 21, 25, total dose 50.0 mg/kg
[9] = VEGF Trap SC 40.0 mg/kg per administration, days 21, 25, total dose 80.0 mg/kg

With `COc1ccc(/C=C\c2cc(OC)c(OC)c(OC)c2)cc1NC(=O)C(N)CO` (stereo not shown) [Formula (IIa)] the Comments [1, 3] was “Inactive”, the Log cell kill [1, 3] was 0.4 and the “Regression Complete” value [1, 3] was 0/5. For the same compound, the “Regression Partial” value [1, 3] was 0/5, the “T-C” value [1, 3] was 3.4 days and the “Time to reach tumor size of 1000 mg (median)” value (from here on “Time to reach tumor size”) [1, 3] was 27.2 days. For the same compound, the Comments [1, 4] was “Inactive”, the Log cell kill [1, 4] was 0.5 and the “Regression Complete” value [1, 4] was 0/5. The “Regression Partial” value [1, 4] was 0/5, the “T-C” value [1, 4] was 4.1 days and the “Time to reach tumor size” value [1, 4] was 27.9 days. For the same compound, the Comments [1, 5] was “inactive”, the Log cell kill [1, 5] was 0.6 and the “Regression Complete” value [1, 5] was 0/5. The “Regression Partial” value [1, 5] was 0/5, the “T-C” value [1, 5] was 5.1 days and the “Time to reach tumor size” value [1, 5] was 28.9 days. For the same compound, the “Average weight loss as % per mouse at the lowest point (day of the lowest point)” value (from here on “Average weight loss as % per mouse”) [2, 3] was 0.6 (22) %, the “Mortality related to the agent (day of death)” value (shortened to “Mortality related to the agent”) [2, 3] was 0/5 and the “Average weight loss as % per mouse” value [2, 4] was 2.1 (22) %. The “Mortality related to the agent” value [2, 4] was 0/5, the “Average weight loss as % per mouse” value [2, 5] was 3.8 (22) % and the “Comments (dose level)” value [2, 5] was “HNTD”. For the same compound, the “Mortality related to the agent” value [2, 5] was 0/5, the “Average weight loss as % per mouse” value [2, 6] was 7.4 (26) % and the Comments [2, 6] was “Toxic”. The “Mortality related to the agent” value [2, 6] was 1/5 (23).

For “VEGF Trap: fusion protein: VEGFR1 signal sequence, Ig domain D2 of VEGFR1, Ig domain D3 of VEGFR2, IgG1 Fc domain”, the Comments [1, 7] was “Inactive”, the Log cell kill [1, 7] was 0.1 and the “Regression Complete” value [1, 7] was 0/5. For the same compound, the “Regression Partial” value [1, 7] was 0/5, the “T-C” value [1, 7] was 0.4 days and the “Time to reach tumor size” value [1, 7] was 24.2 days. The Comments [1, 8] was “Inactive”, the Log cell kill [1, 8] was 0.4 and the “Regression Complete” value [1, 8] was 0/5. For the same compound, the “Regression Partial” value [1, 8] was 0/5, the “T-C” value [1, 8] was 2.8 days and the “Time to reach tumor size” value [1, 8] was 26.6 days. The Log cell kill [1, 9] was 0.1, the “Regression Complete” value [1, 9] was 0/5 and the “Regression Partial” value [1, 9] was 0/5. The “T-C” value [1, 9] was 0.8 days, the “Time to reach tumor size” value [1, 9] was 24.6 days and the Comments ([1]; VEGF Trap SC 40.0 mg/kg per administration, days 21, 25, total dose 80.0 mg/kg (MAD)) was “inactive”. For the same compound, the “Average weight loss as % per mouse” value [2, 7] was 0.4 (23) %, the “Mortality related to the agent” value [2, 7] was 0/5 and the “Average weight loss as % per mouse” value [2, 8] was 1.8 (23) %. The “Mortality related to the agent” value [2, 8] was 0/5, the “Average weight loss as % per mouse” value [2, 9] was 1.3 (23) % and the “Mortality related to the agent” value [2, 9] was 0/5.
